By IC50 is commonly meant the point on the concentration scale where inhibition reaches its midpoint. High values mean weaker potency in that assay, low ones greater potency in that assay. What is called viability is a read-out of living cells in per cent, often relative to untreated cells. Higher therefore signals better survival.

Experimental findings from PMC8950151, “Synthesis and Evaluation of the Antifungal and Toxicological Activity of Nitrofuran Derivatives” (Pharmaceutics, 2022) are described below.

Each structure is given as a SMILES string. Converted amounts (≈) assume the structure as drawn. Where two headings read alike, the source gives them in different places.

Series [1] relates to Candida albicans (ATCC 90028). The series can be described thus: Susceptibility test (CLSI M27-A3 broth microdilution, resazurin readout), MIC90. It is filed as cell-based. The note with it: ATCC90028, C. albicans, 24 h, 37 °C.
Series [2] concerns C. krusei (ATCC 6258). The series is described as above. It is filed as cell-based, Candida krusei. The conditions noted are these: Pichia kudriavzevii, ATCC6258, 24 h.
Series [3] concerns C. glabrata (ATCC 90030). The description is as above. It is filed as cell-based, Candida glabrata. The note with it: Nakaseomyces glabratus, ATCC90030, 24 h, 37 °C.
The test system of series [4] is Cryptococcus neoformans (H99/ATCC 208821). The description is as above. It is filed as cell-based. The conditions noted are these: ATCC208821, 48 h.
For series [5], the system named is Histoplasma capsulatum (G217-B/ATCC 26032). The series can be described thus: microbe, parasite or virus in culture. It is filed as cell-based. The note with it: ATCC26032, 144 h.
Series [6] deals with T. rubrum (ATCC 28289). The series is described as follows: Susceptibility assay for dermatophytes (CLSI M38-A2, resazurin), MIC90. It is filed as cell-based. The conditions noted are these: Trichophyton rubrum, ATCC28289, 96 h, 35 °C. (In general: Resazurin is reduced to fluorescent resorufin, in cell work by metabolically active cells.)
The subject of series [7] is Trichophyton mentagrophytes (ATCC 11481). Described as above. It is filed as cell-based. The note with it: T. mentagrophytes, 35 °C.
The test system of series [8] is Candida albicans (ATCC 90028). The series is described as follows: Minimum fungicidal concentration (MFC). It is filed as cell-based. The note with it: ATCC90028, C. albicans.
Series [9] relates to C. krusei (ATCC 6258). The series is described as follows: Minimum fungicidal concentration (MFC). It is filed as cell-based, Candida krusei. The conditions noted are these: Pichia kudriavzevii, ATCC6258.
Series [10] deals with C. glabrata (ATCC 90030). The series can be described thus: Minimum fungicidal concentration (MFC). The note with it: Nakaseomyces glabratus, ATCC90030. It is filed as cell-based, Candida glabrata.
The test system of series [11] is Cryptococcus neoformans (H99/ATCC 208821). The series is described as follows: Minimum fungicidal concentration (MFC). It is filed as cell-based. The note with it: ATCC208821, C. neoformans.
The subject of series [12] is Histoplasma capsulatum (G217-B/ATCC 26032). The series is described as follows: microbe, parasite or virus in culture. It is filed as cell-based. The note with it: ATCC26032.
Series [13] has as its system Paracoccidioides brasiliensis (Pb 18). The series can be described thus: microbe, parasite or virus in culture. It is filed as cell-based. The conditions noted are these: Paracoccidioides brasiliensis.
The subject of series [14] is T. rubrum (ATCC 28289). The series is described as follows: Minimum fungicidal concentration (MFC). The note with it: Trichophyton rubrum, ATCC28289. It is filed as cell-based, Trichophyton rubrum.
Series [15] deals with Trichophyton mentagrophytes (ATCC 11481). The series is described as follows: Minimum fungicidal concentration (MFC). The note with it: T. mentagrophytes; for MFC: Trichophyton mentagrophytes, ATCC11481. It is filed as cell-based.
In series [16] the test system is A549 (ATCC CCL-185) lung epithelial cell line. The series can be described thus: Cytotoxicity assay in monolayer by resazurin colorimetric method. It is filed as cell-based. The conditions noted are these: Homo sapiens, A549 cells, 72 h.
The next series is described as follows: in vivo. The note with it: AU37 [glp-4 (bn2) I, sek-1 (km4) X], Caenorhabditis elegans, C. elegans larvae viability. Here is the method: The experiments were carried out with the mutant strain (AU37 [glp-4 (bn2) I; […]]). The strain was maintained on plates containing nematode growth medium (NGM) seeded with Escherichia coli OP50 at 16 °C. The stage of synchronization of young adults at stage L4 was performed for the toxicity test. About 20 larvae were transferred to each well of 96-well plates containing 100 μL of a medium composed of 60% of 50 mM NaCl; 40% BHI broth; 10 mg/mL cholesterol in ethanol; 200 mg/mL ampicillin and 90 mg/mL kanamycin. Then, 100 μL of dilutions of nitrofuran derivatives (showing the best selectivity index against the fungal species) were added. […] Plates were incubated at 25 °C for 24 h. Survival was assessed by the mobility and shape of the nematode (stick-shaped larvae were considered dead, while sinusoidal larvae were considered alive) under an inverted optical microscope on 40× objective lenses.

The nature of another series: in vitro. The conditions noted are these: human.
Setting [17] is: Trichophyton mentagrophytes, ATCC11481, 96 h, read-out: MIC90.

`O=C(/C=C/c1ccc([N+](=O)[O-])o1)c1ccc(Br)cc1` [Compound 11]: the MIC90 was 125 µg/mL (≈ 388 µM) in series [1]; 250 µg/mL (≈ 776 µM) in the series with C. krusei (ATCC 6258) [2]; 250 µg/mL (≈ 776 µM) in the series on C. glabrata (ATCC 90030) [3]; ≥ 250 µg/mL in [4]; 0.48 µg/mL (≈ 1.49 µM) in series [5]; 7.8 µg/mL (≈ 24.2 µM) against T. rubrum (ATCC 28289) [6]. Moreover, the MIC90 in series [7] (setting [17]) was 7.8 µg/mL (≈ 24.2 µM). Besides, the MFC was 250 µg/mL (≈ 776 µM) in series [8]; > 250 µg/mL against C. krusei (ATCC 6258) [9]; > 250 µg/mL with C. glabrata (ATCC 90030) [10] (C. glabrata, read-out: MFC); ≥ 250 µg/mL in series [11]; 0.48 µg/mL (≈ 1.49 µM) in [12]; 0.98 µg/mL (≈ 3.04 µM) in [13]. Further, the MFC in the series on T. rubrum (ATCC 28289) [14] was found to be 15.6 µg/mL (≈ 48.4 µM); in series [15] it was 7.8 µg/mL (≈ 24.2 µM). Further, the IC50 in series [16] was determined as 12.2 µg/mL (≈ 38 µM); in the series “in vitro”, 62.6 µg/mL (≈ 194 µM). Besides, the viability at 24 h, 250 µg/mL in “in vivo” is 80%.

For the compound `O=C(NCCc1ccccn1)c1ccc([N+](=O)[O-])o1` [Compound 3, 5-nitro-N-(2-(pyridin-2-yl)ethyl)furan-2-carboxamide], the MIC90 in [1] is > 250 µg/mL; in the series on C. krusei (ATCC 6258) [2], 250 µg/mL (≈ 957 µM); against C. glabrata (ATCC 90030) [3], > 250 µg/mL; in [4], 31.2 µg/mL (≈ 120 µM); in series [5], 3.9 µg/mL (≈ 14.9 µM); in the series on T. rubrum (ATCC 28289) [6], 125 µg/mL (≈ 478 µM). Also, the MIC90 in [7] (setting [17]) was 62.5 µg/mL (≈ 239 µM). For the same compound, the MFC in [8] is > 250 µg/mL; with C. krusei (ATCC 6258) [9], > 250 µg/mL; with C. glabrata (ATCC 90030) [10] (C. glabrata, read-out: MFC), > 250 µg/mL; in series [11] it was 62.5 µg/mL (≈ 239 µM); in series [12] it was 3.9 µg/mL (≈ 14.9 µM); in [13] it was 0.98 µg/mL (≈ 3.75 µM). For the same compound, the MFC stood at 125 µg/mL (≈ 478 µM) in the series on T. rubrum (ATCC 28289) [14] and 250 µg/mL (≈ 957 µM) in series [15]. The “fungistatic / fungicidal profile” value in series [15] (MFC versus MIC90) is reported as “fungistatic profile”. Also, the IC50 in series [16] is 231 µg/mL (≈ 885 µM); in the series “in vitro”, 250 µg/mL (≈ 957 µM). The compound also displayed a viability at 24 h, 250 µg/mL in “in vivo” of 82.5%.

As to `O=C(NCCCc1ccccc1)c1ccc([N+](=O)[O-])o1` [Compound 5], the MIC90 in series [1] is 125 µg/mL (≈ 456 µM); in the series on C. krusei (ATCC 6258) [2] it was 62.5 µg/mL (≈ 228 µM); against C. glabrata (ATCC 90030) [3] it was 125 µg/mL (≈ 456 µM); in series [4] it was 7.81 µg/mL (≈ 28.5 µM); in series [5], 1.95 µg/mL (≈ 7.11 µM); with T. rubrum (ATCC 28289) [6], 15.7 µg/mL (≈ 57.1 µM). In addition, the MIC90 in [7] (setting [17]) came to 31.2 µg/mL (≈ 114 µM). Moreover, in series [4] (read-out: MIC90), the MIC amounted to 3.9 µg/mL (≈ 14.2 µM). Also, the MFC in [8] was 250 µg/mL (≈ 911 µM); in the series with C. krusei (ATCC 6258) [9], 62.5 µg/mL (≈ 228 µM); with C. glabrata (ATCC 90030) [10], 125 µg/mL (≈ 456 µM); in series [11], 15.6 µg/mL (≈ 56.9 µM); in series [12], 1.95 µg/mL (≈ 7.11 µM); in series [13], 31.2 µg/mL (≈ 114 µM). Further, the MFC is 31.2 µg/mL (≈ 114 µM) against T. rubrum (ATCC 28289) [14] and 62.5 µg/mL (≈ 228 µM) in series [15]. Further, the IC50 was 30.1 µg/mL (≈ 110 µM) in [16] and 39.8 µg/mL (≈ 145 µM) in “in vitro”. The compound further showed a viability at 24 h, 250 µg/mL in “in vivo” of 85.7%.

Consider `COc1ccc(C(=O)/C=C/c2ccc([N+](=O)[O-])o2)cc1` [Compound 12], for which the MIC90 in series [1] is 250 µg/mL (≈ 915 µM); in the series with C. krusei (ATCC 6258) [2], 250 µg/mL (≈ 915 µM); in the series on C. glabrata (ATCC 90030) [3], 250 µg/mL (≈ 915 µM); in series [4], 62.5 µg/mL (≈ 229 µM); in series [5], 7.81 µg/mL (≈ 28.6 µM); with T. rubrum (ATCC 28289) [6] it was 0.98 µg/mL (≈ 3.59 µM). For the same compound, the MIC90 in series [7] (96 h) amounted to 1.95 µg/mL (≈ 7.14 µM); in [7] (Trichophyton mentagrophytes, ATCC11481, 96 h), 0.98 µg/mL (≈ 3.59 µM). Moreover, the MFC in series [8] was > 250 µg/mL; against C. krusei (ATCC 6258) [9], > 250 µg/mL; in the series with C. glabrata (ATCC 90030) [10] (C. glabrata, read-out: MFC) it was > 250 µg/mL; in [11] it was 125 µg/mL (≈ 457 µM); in series [12], 15.6 µg/mL (≈ 57.2 µM); in [13] it was 3.9 µg/mL (≈ 14.3 µM). In addition, the MFC (in the series on T. rubrum (ATCC 28289) [14]; in [15]) was 1.95 µg/mL (≈ 7.14 µM) in each case. The IC50 in series [16] came out at 250 µg/mL (≈ 915 µM); in the series “in vitro”, 228 µg/mL (≈ 834 µM). Besides, the viability at 24 h, 250 µg/mL in the series “in vivo” was > 94%.
